{"source": "patent US10807978B2", "about": "“Process for preparation of palbociclib” (DR. REDDY'S LABORATORIES LIMITED, priority 2016, dated 2020)", "assay": "Surface Area (BET method)", "assay_type": "physicochemical", "conditions": "isolated palbociclib free base solid"}
{"compound": "CC(=O)c1c(C)c2cnc(Nc3ccc(N4CCNCC4)cn3)nc2n(C2CCCC2)c1=O", "note": "[Example 9, 6-acetyl-8-cyclopentyl-5-methyl-2-{[5-(piperazin-1-yl)pyridin-2yl]amino}-pyrido[2,3-d]pyrimidin-7(8H)-one]", "values": [{"measurement": "Surface Area (BET method)", "value": 3.61, "unit": "m^2/g"}]}
{"compound": "CC(=O)c1c(C)c2cnc(Nc3ccc(N4CCNCC4)cn3)nc2n(C2CCCC2)c1=O", "note": "[Example 11, 6-acetyl-8-cyclopentyl-5-methyl-2-{[5-(piperazin-1-yl)pyridin-2yl]amino}-pyrido[2,3-d]pyrimidin-7(8H)-one]", "values": [{"measurement": "Surface Area (BET method)", "value": 9.38, "unit": "m^2/g"}]}
